Assay results taken from patent US4177269A, “Novel 17-esters of 17α-hydroxy gestogens, compositions containing such compounds, processes for their preparation and methods of treatment therewith” (Aktiebolaget Leo, priority 1976, dated 1979).

What was measured:
[1] = molecular target: T1, rabbit uterus cytosol progesterone receptor (Oryctolagus cuniculus, UniProt P06186); assay: Relative affinity to rabbit uterus cytosol progesterone receptor (3H-progesterone competition); assay type: binding; conditions: compared to progesterone; 50% competition with 3H-progesterone; 16-18 hours at 4° C.
T1 construct: One ml portions of the supernatant (rabbit uterus cytosol) were pipetted into small centrifuge tubes of glass; from tissue; host or cells: uterus cytosol (105,000×g supernatant) of female rabbits pretreated with polyestradiol phosphate
T1 sequence (P06186 1-930): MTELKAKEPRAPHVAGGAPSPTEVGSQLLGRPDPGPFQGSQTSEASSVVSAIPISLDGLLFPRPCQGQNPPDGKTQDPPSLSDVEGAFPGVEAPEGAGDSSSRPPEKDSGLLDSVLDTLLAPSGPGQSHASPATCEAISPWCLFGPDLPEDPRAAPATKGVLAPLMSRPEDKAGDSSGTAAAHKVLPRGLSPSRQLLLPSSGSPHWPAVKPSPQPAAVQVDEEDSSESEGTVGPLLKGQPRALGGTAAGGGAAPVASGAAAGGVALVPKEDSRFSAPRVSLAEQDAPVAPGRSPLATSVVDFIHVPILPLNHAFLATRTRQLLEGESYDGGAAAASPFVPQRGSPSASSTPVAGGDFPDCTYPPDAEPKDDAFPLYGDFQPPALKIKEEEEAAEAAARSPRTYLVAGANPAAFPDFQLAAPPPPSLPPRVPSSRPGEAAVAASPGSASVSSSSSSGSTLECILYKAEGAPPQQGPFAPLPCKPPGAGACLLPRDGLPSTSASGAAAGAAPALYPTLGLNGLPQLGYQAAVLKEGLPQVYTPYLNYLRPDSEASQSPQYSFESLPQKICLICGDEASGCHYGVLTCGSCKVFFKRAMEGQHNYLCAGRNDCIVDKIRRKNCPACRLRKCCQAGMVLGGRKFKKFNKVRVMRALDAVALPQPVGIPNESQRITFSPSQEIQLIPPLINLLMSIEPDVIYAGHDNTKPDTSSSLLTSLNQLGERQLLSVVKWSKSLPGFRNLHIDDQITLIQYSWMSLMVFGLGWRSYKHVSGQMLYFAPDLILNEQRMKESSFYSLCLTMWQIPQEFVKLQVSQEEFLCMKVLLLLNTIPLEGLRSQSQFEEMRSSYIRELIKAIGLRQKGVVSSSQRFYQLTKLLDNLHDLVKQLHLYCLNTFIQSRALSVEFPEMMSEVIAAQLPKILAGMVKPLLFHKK
Protocol: This example illustrates the compound's relative affinity to rabbit uterus cytosol progesterone receptor compared with progesterone. The method used for this purpose is a modification of methods already described by Kontula, K. et al. (Acta Endocrinol. 78 (1975) 574) and Terenius, L. (Steroids 23 (1974) 909) among others.
Female rabbits (3-4 pounds) from Knut Larsen, Uddevalla, Sweden, were injected i.m. with 1 mg Estradurin (polyestradiol phosphate, 1 mg/ml saline, AB Leo, Sweden). After one week, the animals were killed and the uteri were immediately removed, chilled and cut free from connective tissues. All the following operations were performed at 0°-4° C. The uteri were cut into small pieces and washed several times with 3 vol. of buffer at pH 7.4 containing 50 MM TRIS-HCl, 1.5 mM EDTA, 3 mM NaN3, 2 mM dithiothreitol, and 25% glycerol (by vol.). The tissue was homogenized in the same buffer (3 vol.) with four 15-s bursts at rheostat setting 36-37 of an Ultra Turrax (Janke and Kunkel KG, Staufen, The Federal Republic of Germany). The homogenate was centifuged in a Sorvall GLC-2 centrifuge for 15 min at 600×g. The supernatanate was recentrifuged at 105,000×g for 60 min in a Beckman ultracentrifuge model LB-65-B with rotor SW 56.
One ml portions of the supernatant (rabbit uterus cytosol) were pipetted into small centrifuge tubes of glass and were kept at -70° C. until used. The protein content was determined by the method of Lowry (J. Biol. Chem. 193 (1951) 265).
10.0 mg of each compound was dissolved in 10.0 ml 99.5% ethanol. 100 μl of this standard solution was diluted to 5.0 ml ethanol/glycerol 1:1 (v/v). The ethanol was evaporated by blowing air at 40° C. on the solution. The volume was then adjusted to 5.0 ml by adding buffer without glycerol.
The compounds were diluted with glycerol/buffer 1:1 to final concentrations between 10^-8 -10^-5 M in total 300 μl incubation media. 100 μl of each compound and of each dilution were incubated in small centrifuge tubes (2 ml) together with 100 μl (10 pg) ^3 H-progesterone (1,2,6,7-3H-progesterone, 47.8 Ci/mMol, The Radiochemical Centre, Amersham, England) and 100 μl cytosol adjusted with buffer to a final concentration of about […]. The incubations were carried out for 16-18 hours at 4° C.
The separation of bound from free radioactivity was carried out at 0° C. using the dextran coated charcoal technique (DCC). To each incubation tube was added 0.5 ml DCC-suspension (0.05% dextran-70, Pharmacia, Uppsala, Sweden and 0.5% Norit A, Sigma, Saint Louis, Missouri, U.S.A.) The tubes were agitated 2-3 times during 10 minutes whereupon they were centrifuged at 100×g for five minutes. The supernatantes were decanted directly into Scintillation vials (polyethene, Packard) containing 10 ml InstaGel (Packard). The radioactivity was counted in a Philip's liquid scintillation spectrometer Model PW 4510/00 with external standard and automatic quenching correction.
To incubation tubes were added 100 μl cytosol, 100 μl ^3 H-progesterone (10 pg) and 100 μl of different dilutions of non-radioactive progesterone in glycerol/buffer 1:1 ranging from 0-10^4 pg/100 μl. The tubes were incubated parallel with the compounds described above. The radioactivity was calculated by substracting the counted radioactivity in the incubation tubes with the radioactivity counted in incubations tubes in which the cytosol was replaced with buffer (100 μl).
The concentration of non-radioactive progesterone [P]i which competes for 50% of bound radioactive progesterone was calculated from the standard curve constructed [B] i/[B] o=0.5 where [B]i is the bound radioactivity at different concentrations of non-radioactive progesterone and [B]o is the bound radioactivity at progesterone concentration zero.
In the same manner, curves were constructed for each compound X and the concentration for each compound which competes for 50% with bound ^3 H-progesterone ([X]50) was calculated. […]

[2] = test system: Lymphatic leukemia L 1210; assay: Lymphatic leukemia L 1210 survival in mice; assay type: in vivo, CDF1 (C3H×DBA/2)F1 mice; conditions: one i.p. injection; for Weight change Δv: T - C up to the 5th day
Text: The experimental design and the interpretation of the results are in accordance with the standards set by the CCNSC (Cancer Chemotherpy Reports, January 1959 and December 1962).
Lymphatic leukemia L 1210.
Experimental animals: CDF1 (C3H×DBA/2)F1 mice
Tumour implant: 10^5 tumour cells i.p.
Therapy: One injection i.p. on the day following implanta-
Evaluation: (a) The survival time of the test animals (t)
expressed as the percentage of that of control animals (c).
(b) Weight change in the test animals (T) compared with that
of the control animals (C) up to the 5th day.
(c) The mortality rate must not exceed 35% in the test
animals on the 5th day of therapy.

Compound: CC(=O)[C@@]1(OC(=O)COC(=O)c2ccc(C)c(N(CCCl)CCCl)c2)CC[C@H]2[C@@H]3CCC4=CC(=O)CC[C@]4(C)[C@H]3CC[C@@]21C [Compound 3:7, 17α-/3-(N,N-bis(2-chloroethyl)amino)-4-methylbenzoyloxyacetoxy/pregn-4-ene-3,20-dione]
- relative binding affinity (RBA) [1]: 1.8%
- Effect (survival time of test animals as percentage of that of control animals) ([2]; 250 mg/kg): 130%
- Mortality ([2]; 250 mg/kg): 0/20
- Weight change Δv ([2]; 250 mg/kg): -4.0 g
- Effect (survival time of test animals as percentage of that of control animals) ([2]; 500 mg/kg): 172%
- Mortality ([2]; 500 mg/kg): 0/19
- Weight change Δv ([2]; 500 mg/kg): -5.2 g
